The results in this text go back to ChEMBL document CHEMBL1158512, “The antimicrobial activity of compounds from the leaf and stem of Vitis amurensis against two oral pathogens” (2010).

Broadly, the MBC is the lowest tested concentration that kills the bacteria rather than only halting them. The low end stands for greater bactericidal potency, the high end for weaker bactericidal potency. One may read the MIC as the lowest concentration that inhibits growth of the organism. High values mean a less susceptible organism, low ones a more susceptible organism.

Holding throughout (assay type): functional
For assay [1], the system named is Streptococcus sanguinis. Description: Antimicrobial activity against Streptococcus sanguinis NCTC 9811 at 100 ug/ml after 20 hrs by disk diffusion method. To be noted: for zone of inhibition at 100 µg/mL: NCTC 9811, 20 h, read-out: IZ. A general note: A growth-free zone around the sample is the usual read-out of agar diffusion tests.
Assay [2] has as its system Streptococcus sanguinis. Description: Antimicrobial activity against Streptococcus sanguinis NCTC 9811 at 400 ug/ml after 20 hrs by disk diffusion method. Conditions: for zone of inhibition at 400 µg/mL: NCTC 9811, 20 h, read-out: IZ.
In assay [3] the test system is Streptococcus mutans. In words: Antimicrobial activity against Streptococcus mutans KCTC 3065 assessed as total bacterial adherence inhibition.
Assay [4] has as its system Streptococcus mutans. Description: Antimicrobial activity against Streptococcus mutans KCTC 3065 at 200 ug/ml after 20 hrs by disk diffusion method. To be noted: for zone of inhibition at 200 µg/mL: KCTC 3065, 20 h, read-out: IZ.
Assay [5] has as its system Streptococcus sanguinis. In words: Antimicrobial activity against Streptococcus sanguinis NCTC 9811 assessed as total bacterial adherence inhibition.
Assay [6] has as its system Streptococcus sanguinis. Description: Antimicrobial activity against Streptococcus sanguinis NCTC 9811 at 200 ug/ml after 20 hrs by disk diffusion method. To be noted: for zone of inhibition at 200 µg/mL: NCTC 9811, 20 h, read-out: IZ.
The test system of assay [7] is Streptococcus mutans. In words: Antimicrobial activity against Streptococcus mutans KCTC 3065 at 100 ug/ml after 20 hrs by disk diffusion method. To be noted: for zone of inhibition at 100 µg/mL: KCTC 3065, 20 h, read-out: IZ.
The test system of assay [8] is Streptococcus mutans. Description: Antimicrobial activity against Streptococcus mutans KCTC 3065 at 50 ug/ml after 20 hrs by disk diffusion method. Conditions: for zone of inhibition at 50 µg/mL: KCTC 3065, 20 h, read-out: IZ.
Assay [9] deals with Streptococcus mutans. In words: Antimicrobial activity against Streptococcus mutans KCTC 3065 at 600 ug/ml after 20 hrs by disk diffusion method. Conditions: for zone of inhibition at 600 µg/mL: KCTC 3065, 20 h, read-out: IZ.
Assay [10] has as its system Streptococcus mutans. In words: Antimicrobial activity against Streptococcus mutans KCTC 3065 at 400 ug/ml after 20 hrs by disk diffusion method. To be noted: for zone of inhibition at 400 µg/mL: KCTC 3065, 20 h, read-out: IZ.
The test system of assay [11] is Streptococcus sanguinis. Description: Antimicrobial activity against Streptococcus sanguinis NCTC 9811 at 600 ug/ml after 20 hrs by disk diffusion method. To be noted: for zone of inhibition at 600 µg/mL: NCTC 9811, 20 h, read-out: IZ.
Assay [12] deals with Streptococcus sanguinis. Description: Antimicrobial activity against Streptococcus sanguinis NCTC 9811 after 20 hrs by plate dilution method. Conditions: NCTC 9811, 20 h.
Assay [13] relates to Streptococcus sanguinis. In words: Antimicrobial activity against Streptococcus sanguinis NCTC 9811 at 50 ug/ml after 20 hrs by disk diffusion method. Conditions: for zone of inhibition at 50 µg/mL: NCTC 9811, 20 h, read-out: IZ.
Assay [14] concerns Streptococcus mutans. Description: Antimicrobial activity against Streptococcus mutans KCTC 3065 after 20 hrs by plate dilution method. Conditions: KCTC 3065, 20 h.

Values after ≈ are worked out from the molar mass of the structure shown. Active and inactive are the calls of the source. The calls are words filed in the database; no cut-off is given here.

In the case of `Oc1ccc(/C=C/c2cc(O)cc3c2[C@H](c2cc(O)cc(O)c2)[C@@H](c2ccc(O)cc2)O3)cc1`, the zone of inhibition at 100 µg/mL in the assay with Streptococcus sanguinis [1] is 20 mm; in the assay with Streptococcus mutans [7] it was less than 15 mm. The zone of inhibition at 400 µg/mL in the assay with Streptococcus sanguinis [2] is 20 mm; in the assay on Streptococcus mutans [10], greater than 20 mm. In addition, the “Concentration for total adherence inhibition” value in the assay with Streptococcus mutans [3] worked out at 25 µg/mL. The zone of inhibition at 200 µg/mL in the assay on Streptococcus mutans [4] and in the assay with Streptococcus sanguinis [6] was 20 mm each time. In addition, the Activity in the assay with Streptococcus sanguinis [5] was found to be 50 µg/mL. The zone of inhibition at 50 µg/mL in the assay with Streptococcus mutans [8] and in the assay on Streptococcus sanguinis [13] was less than 15 mm each time. Besides, the zone of inhibition at 600 µg/mL in the assay on Streptococcus mutans [9] was greater than 20 mm; in the assay with Streptococcus sanguinis [11], 20 mm. Besides, the MBC against Streptococcus sanguinis [12] and in the assay on Streptococcus mutans [14] was 50 mg/L (≈ 110 µM) throughout. For the same compound, the MIC in the assay on Streptococcus sanguinis [12] amounted to 12.5 mg/L (≈ 27.5 µM); against Streptococcus mutans [14], 25 mg/L (≈ 55 µM).

On to `Oc1ccc(C2[C@H]3c4cc(O)cc(O)c4[C@@H](c4ccc(O)cc4)[C@@H]2c2cc(O)cc(O)c23)cc1` (stereo not given in full), for which the “inhibition zone (IZ)” value in the assay on Streptococcus sanguinis [1], in the assay with Streptococcus mutans [8] and in the assay on Streptococcus sanguinis [13] was “inactive” throughout. Also, the zone of inhibition at 400 µg/mL in the assay on Streptococcus sanguinis [2] and in the assay with Streptococcus mutans [10] was less than 15 mm throughout. For the same compound, the “Concentration for total adherence inhibition” value in the assay on Streptococcus mutans [3] is 100 µg/mL. Besides, the zone of inhibition at 200 µg/mL was less than 15 mm in the assay with Streptococcus mutans [4] and less than 11 mm in the assay on Streptococcus sanguinis [6]. Besides, the Activity with Streptococcus sanguinis [5] was greater than 200 µg/mL. For the same compound, the zone of inhibition at 100 µg/mL with Streptococcus mutans [7] was less than 11 mm. For the same compound, the zone of inhibition at 600 µg/mL in the assay on Streptococcus mutans [9] was 20 mm; in the assay on Streptococcus sanguinis [11] it was less than 15 mm. The minimum bactericidal concentration (MBC) is greater than 400 mg/L against Streptococcus sanguinis [12] and 200 mg/L (≈ 440 µM) in the assay with Streptococcus mutans [14]. The minimal inhibitory concentration (MIC) with Streptococcus sanguinis [12] is greater than 400 mg/L; with Streptococcus mutans [14], 100 mg/L (≈ 220 µM).

As to `OC[C@H]1OC(Oc2cc(O)cc(/C=C/c3ccc(O)cc3)c2)[C@H](O)[C@@H](O)[C@@H]1O` (stereo not given in full), the “inhibition zone (IZ)” value in the assay on Streptococcus sanguinis [1], in the assay on Streptococcus sanguinis [2], with Streptococcus mutans [4], with Streptococcus sanguinis [6], in the assay on Streptococcus mutans [7] and in the assay on Streptococcus mutans [8] was “inactive” each time. In addition, the “inhibition zone (IZ)” value in the assay with Streptococcus mutans [9], in the assay with Streptococcus mutans [10], in the assay with Streptococcus sanguinis [11] and in the assay on Streptococcus sanguinis [13] was “inactive” throughout.

`OC[C@H]1O[C@@H](Oc2cc(O)cc(/C=C/c3ccc(O)c(O)c3)c2)[C@H](O)[C@@H](O)[C@@H]1O`: the “inhibition zone (IZ)” value in the assay on Streptococcus sanguinis [1], in the assay with Streptococcus sanguinis [2], in the assay on Streptococcus mutans [4], in the assay on Streptococcus sanguinis [6], in the assay with Streptococcus mutans [7] and in the assay on Streptococcus mutans [8] was “inactive” throughout. Besides, the “inhibition zone (IZ)” value with Streptococcus mutans [9], with Streptococcus mutans [10], with Streptococcus sanguinis [11] and in the assay on Streptococcus sanguinis [13] was “inactive” each time.

Regarding `Oc1ccc([C@H]2c3c(O)cc(O)cc3[C@H]3c4c(cc(O)c5c4[C@H]2[C@@H](c2ccc(O)cc2)[C@@H]5c2cc(O)cc(O)c2)O[C@@H]3c2ccc(O)cc2)cc1` [AMURESIN G], the results for the zone of inhibition at 100 µg/mL in the assay on Streptococcus sanguinis [1] and in the assay with Streptococcus mutans [7] were less than 15 mm and less than 11 mm, respectively. For the same compound, the zone of inhibition at 400 µg/mL with Streptococcus sanguinis [2] and in the assay on Streptococcus mutans [10] was less than 15 mm each time. Further, the “Concentration for total adherence inhibition” value in the assay with Streptococcus mutans [3] came to 25 µg/mL. In addition, the zone of inhibition at 200 µg/mL was less than 11 mm in the assay on Streptococcus mutans [4] and less than 15 mm in the assay on Streptococcus sanguinis [6]. In the assay on Streptococcus sanguinis [5], the Activity came out at 50 µg/mL. For the same compound, the “inhibition zone (IZ)” value with Streptococcus mutans [8] was “inactive”. For the same compound, the zone of inhibition at 600 µg/mL in the assay on Streptococcus mutans [9] and in the assay with Streptococcus sanguinis [11] was less than 15 mm in each case. Also, the MBC with Streptococcus sanguinis [12] is 100 mg/L (≈ 147 µM); against Streptococcus mutans [14] it was 50 mg/L (≈ 73.5 µM). The MIC came to 12.5 mg/L (≈ 18.4 µM) against Streptococcus sanguinis [12] and 50 mg/L (≈ 73.5 µM) against Streptococcus mutans [14]. The zone of inhibition at 50 µg/mL in the assay with Streptococcus sanguinis [13] is less than 11 mm.

Take `CC[C@H]1OC(=O)[C@H](C)[C@@H](O[C@H]2C[C@@](C)(OC)[C@@H](O)[C@H](C)O2)[C@H](C)[C@@H](O[C@@H]2O[C@H](C)C[C@H](N(C)C)[C@H]2O)[C@](C)(O)C[C@@H](C)C(=O)[C@H](C)[C@@H](O)[C@]1(C)O` [ERYTHROMYCIN]: in the assay with Streptococcus mutans [3], the “Concentration for total adherence inhibition” value came out at 0.78 µg/mL. The Activity in the assay on Streptococcus sanguinis [5] was determined as 25 µg/mL. Besides, in the assay on Streptococcus sanguinis [12], the MBC was determined as 50 mg/L (≈ 68.1 µM) and the MIC was 12.5 mg/L (≈ 17 µM). Besides, in the assay on Streptococcus mutans [14], the minimum bactericidal concentration (MBC) was less than 1.5 mg/L.

Consider `Oc1cc(O)cc(/C=C/c2ccc(O)c(O)c2)c1` [PICEATANNOL], for which the zone of inhibition at 100 µg/mL in the assay on Streptococcus sanguinis [1] and in the assay with Streptococcus mutans [7] was less than 15 mm each time. Further, the zone of inhibition at 400 µg/mL with Streptococcus sanguinis [2] and in the assay on Streptococcus mutans [10] was greater than 20 mm in each case. In addition, in the assay on Streptococcus mutans [3], the “Concentration for total adherence inhibition” value came to 50 µg/mL. In addition, the zone of inhibition at 200 µg/mL with Streptococcus mutans [4] and in the assay with Streptococcus sanguinis [6] was 20 mm each time. The Activity in the assay with Streptococcus sanguinis [5] came out at 50 µg/mL. Moreover, the zone of inhibition at 50 µg/mL in the assay with Streptococcus mutans [8] and in the assay with Streptococcus sanguinis [13] was less than 15 mm in each case. The zone of inhibition at 600 µg/mL in the assay on Streptococcus mutans [9] and with Streptococcus sanguinis [11] was greater than 20 mm in each case. Further, the minimum bactericidal concentration (MBC) in the assay with Streptococcus sanguinis [12] and in the assay with Streptococcus mutans [14] was 100 mg/L (≈ 409 µM) throughout. The MIC in the assay on Streptococcus sanguinis [12] and against Streptococcus mutans [14] was 50 mg/L (≈ 205 µM) in each case.

Consider `Oc1ccc(/C=C/c2cc(O)cc(O)c2)cc1` [RESVERATROL], for which the figures for the zone of inhibition at 100 µg/mL in the assay on Streptococcus sanguinis [1] and with Streptococcus mutans [7] were less than 11 mm and less than 15 mm, respectively. Also, the zone of inhibition at 400 µg/mL in the assay on Streptococcus sanguinis [2] is less than 15 mm; in the assay with Streptococcus mutans [10], 20 mm. Besides, the “Concentration for total adherence inhibition” value in the assay with Streptococcus mutans [3] was 25 µg/mL. Besides, the figures for the zone of inhibition at 200 µg/mL with Streptococcus mutans [4] and in the assay on Streptococcus sanguinis [6] were 20 mm and less than 15 mm, respectively. Also, the Activity in the assay with Streptococcus sanguinis [5] is 100 µg/mL. The zone of inhibition at 50 µg/mL with Streptococcus mutans [8] and in the assay on Streptococcus sanguinis [13] was less than 11 mm throughout. In addition, the zone of inhibition at 600 µg/mL is greater than 20 mm in the assay on Streptococcus mutans [9] and 20 mm in the assay on Streptococcus sanguinis [11]. For the same compound, the MBC in the assay on Streptococcus sanguinis [12] amounted to 100 mg/L (≈ 438 µM); in the assay on Streptococcus mutans [14], 50 mg/L (≈ 219 µM). The minimum inhibitory concentration (MIC) against Streptococcus sanguinis [12] turned out to be 25 mg/L (≈ 110 µM); in the assay on Streptococcus mutans [14] it was 50 mg/L (≈ 219 µM).
